Measured values reported in patent US7659426B2, “Target protein of anticancer agent and novel anticancer agent (spnal) corresponding thereto” (Reverse Proteomics Research Institute Co., Ltd., priority 2003, dated 2010).
“Also recorded” adds a separate entry of the source.

Tests used:
[1] = target: T1, KSRP (MARTA1, a rat protein having a high homology to KSRP) (Rattus norvegicus, UniProt Q99PF5); test: Binding experiments: compound-immobilized resins with rat brain lysate, SDS gel (FIG. 1); details: 4° C.
T1 construct: from tissue; host or cells: rat brain
T1 sequence (Q99PF5 1-721): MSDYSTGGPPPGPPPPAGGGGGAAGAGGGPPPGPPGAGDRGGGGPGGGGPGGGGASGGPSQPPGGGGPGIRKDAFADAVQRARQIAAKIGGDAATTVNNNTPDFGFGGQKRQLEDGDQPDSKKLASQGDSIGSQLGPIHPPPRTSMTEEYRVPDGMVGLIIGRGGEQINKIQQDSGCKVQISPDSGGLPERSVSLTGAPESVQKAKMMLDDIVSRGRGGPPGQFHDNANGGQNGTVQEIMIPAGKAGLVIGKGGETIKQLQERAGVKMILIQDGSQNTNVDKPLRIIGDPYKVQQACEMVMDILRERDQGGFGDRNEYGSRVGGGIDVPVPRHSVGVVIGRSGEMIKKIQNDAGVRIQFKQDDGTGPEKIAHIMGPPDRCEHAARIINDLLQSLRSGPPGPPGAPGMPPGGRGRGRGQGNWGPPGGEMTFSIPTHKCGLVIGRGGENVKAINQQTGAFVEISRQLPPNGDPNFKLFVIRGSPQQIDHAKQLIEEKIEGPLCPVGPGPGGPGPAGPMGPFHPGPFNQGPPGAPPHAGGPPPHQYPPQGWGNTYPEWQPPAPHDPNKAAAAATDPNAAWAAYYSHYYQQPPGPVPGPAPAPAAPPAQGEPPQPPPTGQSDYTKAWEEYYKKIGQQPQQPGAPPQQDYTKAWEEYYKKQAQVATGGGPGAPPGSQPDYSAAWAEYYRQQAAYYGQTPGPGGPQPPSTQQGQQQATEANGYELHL
Description: The rat brain (2.4 g) was mixed in a mixture A (25 mM Tris-HCl pH 8.0, 0.5% Tween 20, 300 μM DCC (24 ml; N,N-diethyldithiocarbamate sodium)) and prepared as a homogenate, which was then centrifuged at 9,000 rpm for 10 minutes. The centrifugal supernatant was collected and further centrifuged at 50,000 rpm for 30 minutes. The supernatant thus obtained was used as the lysate.
Each resin (10 μl) and lysate (1 ml) were gently shaken at 4° C. for about 1 hour. Thereafter, centrifugal operation was performed, and each supernatant was collected carefully. Then, each supernatant was again mixed with a fresh compound-bound resin (10 μl). At this time, the separated compound-bound resin was kept to stand at 4° C. as the resin from the first binding experiment. After the mixture was gently stirred for about 3 hours, centrifugal operation was performed, and the supernatant was removed. Subsequently, the compound-bound resin obtained in the second binding experiment and the resin obtained in the first binding experiment were gently washed with mixture A about five times to remove substances other than the protein bound onto the resin to the maximum possible extent. […]

COX2 = target: T2, COX2 (Homo sapiens, UniProt P35354); details: Cancer Research, 57, pp. 2909-2915 (1997); cited from earlier work
T2 sequence (P35354 18-604): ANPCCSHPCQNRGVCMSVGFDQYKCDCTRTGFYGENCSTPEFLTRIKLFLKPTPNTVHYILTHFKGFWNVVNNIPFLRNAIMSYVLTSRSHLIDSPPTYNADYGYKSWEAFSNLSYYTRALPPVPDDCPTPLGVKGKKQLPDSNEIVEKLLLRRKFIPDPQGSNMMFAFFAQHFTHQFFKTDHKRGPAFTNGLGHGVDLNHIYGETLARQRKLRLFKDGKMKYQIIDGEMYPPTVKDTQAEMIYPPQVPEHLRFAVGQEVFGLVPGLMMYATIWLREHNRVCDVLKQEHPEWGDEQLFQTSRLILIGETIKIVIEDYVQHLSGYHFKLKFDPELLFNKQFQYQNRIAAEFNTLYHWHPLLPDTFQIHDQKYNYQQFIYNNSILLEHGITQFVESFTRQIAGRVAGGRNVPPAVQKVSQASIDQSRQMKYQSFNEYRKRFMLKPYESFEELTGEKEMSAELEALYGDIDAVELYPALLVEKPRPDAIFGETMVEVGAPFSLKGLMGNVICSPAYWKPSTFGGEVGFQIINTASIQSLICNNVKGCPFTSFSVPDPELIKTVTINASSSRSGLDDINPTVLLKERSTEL

COX1 = COX1 (Homo sapiens, UniProt P23219); design: key to COX1 inhibitory effect: x: weak effect; ∘: definite inhibitory effect; details: cited from earlier work; for inhibitory effect on COX1: Cancer Research, 57, pp. 2909-2915 (1997)
COX1, sequence (P23219 24-599): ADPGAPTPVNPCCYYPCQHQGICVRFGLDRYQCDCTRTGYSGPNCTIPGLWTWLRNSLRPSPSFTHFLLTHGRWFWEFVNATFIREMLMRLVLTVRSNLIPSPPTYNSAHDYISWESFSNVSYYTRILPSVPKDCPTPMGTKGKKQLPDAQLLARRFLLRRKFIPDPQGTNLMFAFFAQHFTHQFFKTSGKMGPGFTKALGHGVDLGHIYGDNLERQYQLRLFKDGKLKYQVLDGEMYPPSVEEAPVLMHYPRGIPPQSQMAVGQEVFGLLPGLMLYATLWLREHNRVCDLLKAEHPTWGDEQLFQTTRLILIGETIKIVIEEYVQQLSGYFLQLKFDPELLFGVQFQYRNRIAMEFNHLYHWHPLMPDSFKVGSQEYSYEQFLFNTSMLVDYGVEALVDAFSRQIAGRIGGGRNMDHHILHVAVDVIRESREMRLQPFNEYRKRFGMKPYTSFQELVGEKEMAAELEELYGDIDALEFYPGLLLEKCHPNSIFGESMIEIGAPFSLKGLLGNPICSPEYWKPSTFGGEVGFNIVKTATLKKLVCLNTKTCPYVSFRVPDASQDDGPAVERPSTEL

Which “binding of KSRP (MARTA1) to the compound-immobilized resin” value [1] does the source give for CC(=O)O[C@H]1C(=O)[C@@]2(C)[C@H]([C@H](OC(=O)c3ccccc3)[C@]3(O)C[C@H](OC(=O)[C@H](O)[C@@H](NC(=O)c4ccccc4)c4ccccc4)C(C)=C1C3(C)C)[C@]1(OC(C)=O)CO[C@@H]1C[C@@H]2O [Taxol] here?
Its value is “binds to KSRP”.

Which “binding of KSRP (MARTA1) to the compound-immobilized resin” value [1] does the source give for CSc1ccc(/C=C2/C(C)=C(CC(=O)O)c3cc(F)ccc32)cc1 [Sulindac sulfide] here?
Its value is “other than the resin immobilized with sulindac sulfide; also recorded: other than the resin wherein sulindac sulfide was immobilized”.

Which “inhibitory effect on COX2” value (COX2) does the source give for CC1=C(CC(=O)O)c2cc(F)ccc2/C1=C\c1ccc(S(C)(=O)=O)cc1 [Sulindac sulfone] here?
The value was “only weak inhibitory effect”.

And the “inhibitory effect on COX1” value (COX1)?
The value was “only weak inhibitory effect”.

And the COX1 inhibitory effect (COX1)?
The COX1 inhibitory effect was “x”.

For CC1=C(CC(=O)O)c2cc(F)ccc2/C1=C\c1ccc([S+](C)[O-])cc1 (centres unmarked) [Sulindac], which “inhibitory effect on COX2” value (COX2) is on record?
The value was “only weak inhibitory effect”.

And the “inhibitory effect on COX1” value (COX1)?
The value was “only weak inhibitory effect”.

And the COX1 inhibitory effect (COX1)?
The COX1 inhibitory effect was “x”.
